Reference: US20120015981A1, “Active compound combinations” (Bayer CorpScience AG, priority 2009, published 2012)

System: Microdochium nivale
Assay: Microdochium nivale test (lawn)/protective
Assay type: in vivo
Conditions: lawn (100% Agrostis stolonifera) in dishes; preventive application at 2000, 1000, 500 and 100 g/ha, 24 hours before inoculation with infected wheat grains; scoring after 5, 7, 14 and 21 days
Method: Microdochium nivale Test (Lawn)/Protective
Lawn seed (100% Agrostis stolonifera) was sown in dishes of the dimensions 38 cm×15 cm×9 cm. 7 days after sowing, the lawn was cut prior to preventive guanidinium hydroxide application at application rates of 2000, 1000, 500 and 100 g/ha. The water application rates were […] (converted). 24 hours after the preventive application of the active compound, the lawn was inoculated by placing of wheat grains infected with Microdochium nivale. In each case 3 wheat grains were placed into a single dish. Scoring of the subsequent fungal growth in the lawn dishes was carried out after 5, 7, 14 and 21 days. In the dishes which had been treated with guanidinium hydroxide, an inhibition of the growth of Microdochium nivale of up to 30% (Abbott) was observed.

Compound: N=C(N)N.O [guanidinium hydroxide]
- inhibition of the growth of Microdochium nivale: up to 30 % (Abbott)
